In PubChem BioAssay (NCI) one finds TGI and GI50 data, which are given here for 8 compounds.

Some test systems named below: OVCAR-3 ovarian; UACC-257 melanoma; SK-MEL-5 melanoma; HCT-116 colon; SF-268 CNS; LOX IMVI melanoma; UO-31 renal; IGROV1 ovarian; MCF7 breast; HT29 colon.
What all share (test): inhibition of tumour cell growth, NCI panel, 48 h

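Cultured in 96-well plates, cells were exposed to test compound for 48 hours across five concentrations. GI50 is the concentration that inhibits growth by half. TGI is the concentration that stops growth completely.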 *1 amine or outer side, *2 acyl side, *3 side chain or, on linkers, in order; H or OH if unused. Where a SMILES comes first, the peptide text is derived from it. Bridges are numbered along the chain shown (N, C = ends). [ ]: non-standard residue; d: D form. The star is where a group is joined. Phe(3,5-F2) = N[C@@H](Cc1cc(F)cc(F)c1)C(=O)O; Pro(4R-Me) = C[C@H]1CN[C@H](C(=O)O)C1; aThr = C[C@H](O)[C@H](N)C(=O)O; Pip = O=C(O)[C@@H]1CCCCN1; X10 = Fc1cc(C2CC2)ccc1N*; CO = O=C([*:1])[*:2] Where only a bound is given, the exact number is not on record here.

Consider `Cc1cnc(NCCCN(C)C)c2c1[nH]c1ccc3cc(O)ccc3c12`, for which the TGI was found to be 1.59 µM in the test with OVCAR-3 ovarian; 11.5 µM in the test with UACC-257 melanoma; 2.2 µM with SK-MEL-5 melanoma; 1.44 µM in the test with HCT-116 colon; 2.07 µM with SF-268 CNS; 1.37 µM with LOX IMVI melanoma. In addition, the TGI was 5.8 µM in the test with UO-31 renal, 4.6 µM with IGROV1 ovarian, 2.15 µM in the test on MCF7 breast and 2.53 µM in the test with HT29 colon.
Turning to `CC1CCc2nc[nH]c(=O)c21` (stereo unspecified), the GI50 in the test on OVCAR-3 ovarian, in the test on SK-MEL-5 melanoma, with HCT-116 colon, in the test with SF-268 CNS, in the test with LOX IMVI melanoma and in the test with UO-31 renal was above 100 µM in each case. Besides, the GI50 with IGROV1 ovarian, in the test on MCF7 breast and in the test on HT29 colon was above 100 µM in each case. In addition, the TGI in the test with OVCAR-3 ovarian, in the test with SK-MEL-5 melanoma, in the test on HCT-116 colon, with SF-268 CNS, in the test with LOX IMVI melanoma and in the test with UO-31 renal was above 100 µM in each case. Besides, the TGI in the test on IGROV1 ovarian, in the test with MCF7 breast and with HT29 colon was above 100 µM throughout.
Take `O=[N+]([O-])c1ccc2c(c1)/C(=N/N=C1c3ccccc3Cc3ccccc31)c1cc([N+](=O)[O-])cc([N+](=O)[O-])c1-2`: the TGI with OVCAR-3 ovarian stood at 3.11 µM; in the test on UACC-257 melanoma, 4.38 µM; in the test with SK-MEL-5 melanoma it was 15 µM; in the test with HCT-116 colon, 3.08 µM; in the test with SF-268 CNS it was 5.81 µM; in the test with LOX IMVI melanoma it was 4.6 µM. Also, the TGI in the test on UO-31 renal stood at 4.41 µM; in the test on IGROV1 ovarian, 3.04 µM; in the test on MCF7 breast it was 3.64 µM; in the test on HT29 colon it was 4.07 µM.
On to `CCOC1Oc2ccccc2C(=O)/C1=C/Nc1ccc(C(C)=O)cc1` (stereo unspecified), for which the GI50 with OVCAR-3 ovarian was 17.2 µM; with UACC-257 melanoma it was 19.7 µM; in the test with SK-MEL-5 melanoma it was 19.1 µM; with HCT-116 colon, 22.8 µM; with SF-268 CNS, 33.7 µM; with LOX IMVI melanoma, 18.9 µM. Further, the GI50 in the test with UO-31 renal was 27.9 µM; in the test with IGROV1 ovarian, 19.5 µM; in the test on MCF7 breast, 26.7 µM; in the test with HT29 colon, 36.3 µM. Also, the TGI in the test with OVCAR-3 ovarian was 43.8 µM; in the test on UACC-257 melanoma, 46.9 µM; in the test with SK-MEL-5 melanoma, 43 µM; with HCT-116 colon, above 100 µM; in the test on SF-268 CNS it was above 100 µM; in the test on LOX IMVI melanoma, 58.5 µM. Besides, the TGI with UO-31 renal, in the test on IGROV1 ovarian, in the test with MCF7 breast and with HT29 colon was above 100 µM each time.
`COC1/C=C/OC2(C)Oc3c(C)c(O)c4c(O)c(c(/C=N/Nc5ccc([N+](=O)[O-])cc5[N+](=O)[O-])c(O)c4c3C2=O)NC(=O)C(C)=C/C=C/C(C)C(O)C(C)C(O)C(C)C(OC(C)=O)C1C` (stereo unspecified): the GI50 in the test on OVCAR-3 ovarian is 1.1 µM; in the test with UACC-257 melanoma, 1.48 µM; with SK-MEL-5 melanoma, 1.29 µM; with HCT-116 colon, 0.955 µM; with SF-268 CNS, 1.59 µM; with LOX IMVI melanoma, 1.03 µM. For the same compound, the GI50 in the test with UO-31 renal is 8.71 µM; in the test with IGROV1 ovarian, 1.87 µM; in the test on MCF7 breast it was 2 µM. Also, the TGI in the test on OVCAR-3 ovarian came to 2.52 µM; with UACC-257 melanoma, 5.58 µM; in the test with SK-MEL-5 melanoma, 3.75 µM; with HCT-116 colon, 1.9 µM; in the test with SF-268 CNS it was 11.4 µM; in the test on LOX IMVI melanoma, 2.32 µM. The TGI with UO-31 renal is 23.6 µM; in the test with IGROV1 ovarian, above 50 µM; in the test with MCF7 breast it was above 50 µM.
Take `O=C(Nc1ccc(F)cc1)Nc1ccc(Cl)c([N+](=O)[O-])c1`: the GI50 is 3.81 µM in the test on OVCAR-3 ovarian; 2.73 µM in the test on UACC-257 melanoma; 1.76 µM in the test on SK-MEL-5 melanoma; 3.07 µM in the test on HCT-116 colon; 4.42 µM in the test with SF-268 CNS; 3.51 µM in the test on LOX IMVI melanoma. For the same compound, the GI50 in the test on UO-31 renal is 2.69 µM; with IGROV1 ovarian, 4.77 µM; in the test with MCF7 breast, 2.66 µM; in the test with HT29 colon it was 3.2 µM. Besides, the TGI in the test on OVCAR-3 ovarian came out at 19.1 µM; in the test with UACC-257 melanoma, 8.85 µM; with SK-MEL-5 melanoma, 3.22 µM; in the test with HCT-116 colon it was 11.8 µM; in the test on SF-268 CNS it was 17.3 µM; in the test with LOX IMVI melanoma it was 12.2 µM. In addition, the TGI is 10.6 µM with UO-31 renal, 18.6 µM with IGROV1 ovarian, 11.9 µM with MCF7 breast and 12.4 µM in the test with HT29 colon.
For `C[C@@H]1C[C@H]2C(=O)O[C@@H](C)[C@H](NC(=O)[C@H](Cc3cc(F)cc(F)c3)NC(=O)Nc3ccc(C4CC4)cc3F)C(=O)N3CCC[C@H]3C(=O)N3CCCC[C@H]3C(=O)N[C@@H](C)C(=O)N2C1` ({X10-CO}-[Phe(3,5-F2)][aThr]P[Pip]A[Pro(4R-Me)]; ester 2-C), the GI50 is 0.043 µM in the test on OVCAR-3 ovarian; 0.0413 µM in the test with UACC-257 melanoma; 0.0461 µM in the test with SK-MEL-5 melanoma; 0.0414 µM with HCT-116 colon; 0.049 µM in the test on SF-268 CNS; 0.0668 µM in the test with LOX IMVI melanoma. Further, the GI50 was 0.161 µM in the test with UO-31 renal, 0.149 µM with IGROV1 ovarian, 0.0381 µM in the test on MCF7 breast and 0.0496 µM in the test on HT29 colon. Besides, the TGI in the test on OVCAR-3 ovarian was 3.27 µM; with UACC-257 melanoma, 10.7 µM; in the test with SK-MEL-5 melanoma, 1.24 µM; with HCT-116 colon, 2.16 µM; with SF-268 CNS, above 46.9 µM; with LOX IMVI melanoma, 11.5 µM. The TGI was determined as 7.61 µM in the test on UO-31 renal, 18.5 µM in the test on IGROV1 ovarian, 13.9 µM in the test with MCF7 breast and 7.95 µM with HT29 colon.
`Fc1[nH]nc2ccc([C@@H]3Nc4ccc5[nH]ncc5c4[C@H]4C5CCC(C5)[C@@H]34)cc12` (stereo partly specified): the GI50 with OVCAR-3 ovarian is 0.39 µM; with UACC-257 melanoma, 10.4 µM; in the test on SK-MEL-5 melanoma, 1.94 µM; in the test on HCT-116 colon, 0.441 µM; in the test with SF-268 CNS, 2.59 µM; with LOX IMVI melanoma, 0.768 µM. The GI50 is 2.83 µM in the test with UO-31 renal, 0.86 µM in the test on IGROV1 ovarian, 0.387 µM in the test with MCF7 breast and 0.439 µM with HT29 colon. Further, the TGI was determined as 2.97 µM with OVCAR-3 ovarian; 23.9 µM in the test with UACC-257 melanoma; 12.4 µM in the test with SK-MEL-5 melanoma; 12.1 µM with HCT-116 colon; 19.8 µM in the test with SF-268 CNS; 14 µM in the test with LOX IMVI melanoma. The TGI was found to be 14.1 µM in the test on UO-31 renal, 16 µM with IGROV1 ovarian, 12.6 µM with MCF7 breast and 12.8 µM in the test with HT29 colon.
